Measurements published in PubChem BioAssay AID2305 (GlaxoSmithKline (GSK), 2010).

Test system: P. falciparum 3D7 growth, pLDH absorbance
Experiment: P. falciparum 3D7 growth inhibition, dose response, strain 3D7 (AID 2305)

Q: With Cc1ccc(C)c(NC(=O)NC2CCN(c3ccnc(Nc4ccc(F)cc4)n3)C2)c1 (stereo not drawn) as the compound, how does the IC50 read?
A: 680 nM

Q: How did the IC50 turn out when COc1ccc(CNC2Cc3ccccc3C2)cc1-c1ccc(OC)c(S(=O)(=O)NCCN2CCCC2)c1 was run?
A: 770 nM

Q: C=CCOc1ccccc1CNCC(O)c1cccc(C(F)(F)F)c1 (stereo not drawn) was tested. Which IC50 did it give?
A: 840 nM

Q: For COc1ccc(-c2ccc(NC(=O)c3ccc(Cl)cc3)cc2)cc1CN(C)CCO, which IC50 is on record?
A: 810 nM

Q: With COc1cccc2c(NN=Cc3cccc([N+](=O)[O-])c3)ccnc12 as the compound, how does the IC50 read?
A: 750 nM

Q: With Cc1[nH]c(C)c(-c2ccc(Oc3ccc(S(C)=O)cc3)cc2)c(=O)c1Br (stereo not drawn) as the compound, how does the IC50 read?
A: 760 nM

Q: Which IC50 does the source give for O=C(c1ccc(-c2ccc(-c3nc4ccc(F)cc4[nH]3)cc2)cc1)N1CCCCC1CN1CCC(O)C1 (stereo not drawn) here?
A: 370 nM

Q: How did the IC50 turn out when CCc1cc(NC2CCN(C)CC2)nc(Nc2cccc(OC)c2)n1 was run?
A: 860 nM

Q: For CCNc1cc(C(=O)N[C@@H](Cc2ccccc2)[C@H](O)CNCc2cccc(-c3cncnc3)c2)cc(N2CCCC2=O)c1, which IC50 is on record?
A: 660 nM

Q: With CCCOc1ccc(-c2nonc2NC(=O)c2ccccc2OC)cc1OCCC as the compound, how does the IC50 read?
A: 860 nM

Q: O=C(Nc1cccc(-c2nn3ccccc3c2-c2ccnc(Nc3cccc(-c4cnco4)c3)n2)c1)C1CCCCC1 was tested. Which IC50 did it give?
A: 260 nM

Q: Which IC50 does the source give for CN(C)c1ccc(-c2ccc(C(=O)NC3CCN(Cc4ccc(C(C)(C)C)cc4)CC3)s2)cc1 here?
A: 970 nM

Q: N#Cc1ccc(-c2ccc(C(=O)NCCCCN3CCC(c4cn(CCO)c5ccccc45)CC3)cc2)cc1 was tested. Which IC50 did it give?
A: 950 nM

Q: O=C(Nc1cccc(CN2CCN(C(=O)c3ccccc3)CC2)c1)c1cccs1 was tested. Which IC50 did it give?
A: 310 nM

Q: How did the IC50 turn out when COc1ccc(NC(=O)Nc2ccc(-c3ccccc3)cc2)cc1Cn1nc(Cl)c(N2CCCNCC2)cc1=O was run?
A: 360 nM

Q: With CC(C)CN(c1nc(C(=O)NNC(=O)[C@H](CC2CC2)NC(=O)c2cc3cc(OCCN(C)C)ccc3o2)cs1)C1CC1 as the compound, how does the IC50 read?
A: 1030 nM

Q: Which IC50 does the source give for CCOc1ccc(-c2nonc2NC(=O)c2ccccc2F)cc1OCC here?
A: 840 nM

Q: Which IC50 does the source give for COc1ccc(C=CC(=O)N2CCC(CN3CCC(c4c[nH]c5ccccc45)CC3)CC2)cc1OC here?
A: 1070 nM

Q: With COc1cc2c(cc1OC)C(C)(C)CN1Cc3c(c(CO)c(OC)c(OC)c3OC)CC21 (stereo not drawn) as the compound, how does the IC50 read?
A: 780 nM

Q: Which IC50 does the source give for O=C(Nc1ccc(OC2CCN(Cc3ccc(F)cc3)C2)c(Cl)c1)c1ccccc1 (stereo not drawn) here?
A: 790 nM

Q: N#Cc1ccc2c(c1)CCN(CCC1CCC(NC(=O)Nc3ccnc4ccccc34)CC1)C2 (stereo not drawn) was tested. Which IC50 did it give?
A: 380 nM

Q: COc1ccc2nccc([C@@H](O)CN3CCC(NCCOc4ccncc4)CC3)c2c1 was tested. Which IC50 did it give?
A: 690 nM

Q: How did the IC50 turn out when NS(=O)(=O)c1ccc(Nc2nccc(-c3c(-c4cccc(NC(=O)c5c(F)cccc5F)c4)nn4ccccc34)n2)cc1 was run?
A: 760 nM

Q: For CC[C@H]1CN2CC[C@@H]1C[C@H]2[C@H](O)c1cc(N2CCOCC2)nc2ccc(OC)cc12, which IC50 is on record?
A: 120 nM

Q: Cc1ccc(OC2CCN(c3ccc(C(=O)NC4CC4)cn3)CC2)cc1 was tested. Which IC50 did it give?
A: 1300 nM

Q: With Cc1ccc(NC(=O)c2ccc(Cl)cc2)cc1-c1ccc(C(=O)Nc2ccncc2)cc1 as the compound, how does the IC50 read?
A: 780 nM

Q: How did the IC50 turn out when COc1ccc2nccc([C@@H](O)CN3CCC(NCCOc4cccc(C(F)(F)F)c4Cl)CC3)c2c1 was run?
A: 150 nM

Q: O=C(NC1CC1)c1cnc(N2CCC(OCc3ccccc3)CC2)c(Cl)c1 was tested. Which IC50 did it give?
A: 1400 nM

Q: For CC(C)C[C@H](NC(=O)c1cc2ccccc2s1)C(=O)N[C@H]1CCN(Cc2ccc(OC3CCN(C)C3)c(Cl)c2)C1 (stereo partly drawn), which IC50 is on record?
A: 780 nM

Q: CC[C@H]1CN2CC[C@H]1C[C@H]2[C@H](O)c1cc(/C=C/c2ccc(F)cc2)nc2ccc(OC)cc12 was tested. Which IC50 did it give?
A: 30 nM

Q: With CO/C(=C\C=C\c1cc2cc(Cl)c(Cl)cc2[nH]1)C(=O)NCC(C)(C)CN(C)C as the compound, how does the IC50 read?
A: 1160 nM

Q: How did the IC50 turn out when CC(C)C(=O)Nc1c(F)cc(F)cc1CCc1ccc(O)cc1 was run?
A: 500 nM

Q: For COc1cc(Nc2ccnc3ccc(C(C)(C)C)cc23)cc(OC)c1OC, which IC50 is on record?
A: 610 nM

Q: Which IC50 does the source give for COc1ccccc1C(=O)Nc1ccc(Nc2nc(C)cc(N3CCOCC3)n2)cc1 here?
A: 530 nM

Q: Which IC50 does the source give for CC(C)(CNC(=O)C1CCN(CCOCc2ccccc2)CC1)c1nc(-c2ccc(Cl)c(O)c2)c(-c2ccncc2)[nH]1 here?
A: 620 nM

Q: For O=c1cc(NCCCNC(CNCCc2ccccc2)c2cc(Br)cc(Br)c2)[nH]c2ccccc12 (stereo not drawn), which IC50 is on record?
A: 860 nM

Q: For Cc1nnc(Sc2ncnc3scc(-c4ccc(F)cc4)c23)s1, which IC50 is on record?
A: 810 nM

Q: How did the IC50 turn out when Oc1ccccc1CN1CCC(CCOC(c2ccccc2)c2ccc(Cl)cc2)CC1 (stereo not drawn) was run?
A: 740 nM
